# According to the supplement of paper PMC10307832:
# Tests used:
# Test in all cases: relative viability (nuclei count vs DMSO), 5 days (fraction); higher = more cells survive
# [1] = compound: CNC(=O)c1cc(Oc2ccc(NC(=O)Nc3ccc(Cl)c(C(F)(F)F)c3)cc2)ccn1 [Sorafenib] + Cc1cc(Nc2cc(N3CCN(C)CC3)nc(Sc3ccc(NC(=O)C4CC4)cc3)n2)n[nH]1 [Tozasertib] (partner 0.1 µM)
# In short: (§1)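 The day after seeding in 1536-well plates, lung cancer cell lines were treated by pin tool with a single drug, or with a fixed anchor-drug dose together with five library-drug doses (not always all listed) in √10 steps. After 5 days, a combined fix-and-stain solution (final 0.05% Triton X-100, 1% formaldehyde, 1 ug/ml Hoechst) was added. Nuclei counted on 4× images gave relative viability as treated counts over vehicle counts, reported as the median of duplicate plates.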
# [2] = compound: CNC(=O)c1cc(Oc2ccc(NC(=O)Nc3ccc(Cl)c(C(F)(F)F)c3)cc2)ccn1 [Sorafenib] + Cc1nc(Nc2ncc(C(=O)Nc3c(C)cccc3Cl)s2)cc(N2CCN(CCO)CC2)n1 [Dasatinib] (partner 0.075 µM)
# In short: as §1
# [3] = compound: CNC(=O)c1cc(Oc2ccc(NC(=O)Nc3ccc(Cl)c(C(F)(F)F)c3)cc2)ccn1 [Sorafenib] + C[C@@H](Oc1cc(-c2cnn(C3CCNCC3)c2)cnc1N)c1c(Cl)ccc(F)c1Cl [Crizotinib] (partner 1 µM)
# In short: as §1
# [4] = compound: CNC(=O)c1cc(Oc2ccc(NC(=O)Nc3ccc(Cl)c(C(F)(F)F)c3)cc2)ccn1 [Sorafenib] + COc1cccc2cc(-c3nc([C@H]4CC[C@H](C(=O)O)CC4)n4ncnc(N)c34)[nH]c12 [OSI-027] (partner 0.5 µM)
# In short: as §1
# [5] = compound: CNC(=O)c1cc(Oc2ccc(NC(=O)Nc3ccc(Cl)c(C(F)(F)F)c3)cc2)ccn1 [Sorafenib] + C[C@]1(O)C[C@@H](c2nc(-c3ccc4ccc(-c5ccccc5)nc4c3)c3c(N)nccn32)C1 [Linsitinib] (partner 1 µM)
# In short: as §1
Cell Line,relative viability ([1]; first compound 0.08 µM),relative viability ([1]; first compound 0.253 µM),relative viability ([1]; first compound 2.53 µM),relative viability ([1]; first compound 8 µM),relative viability ([2]; first compound 0.08 µM),relative viability ([2]; first compound 0.253 µM),relative viability ([2]; first compound 2.53 µM),relative viability ([2]; first compound 8 µM),relative viability ([3]; first compound 0.08 µM),relative viability ([3]; first compound 2.53 µM),relative viability ([3]; first compound 8 µM),relative viability ([4]; first compound 0.08 µM),relative viability ([4]; first compound 0.253 µM),relative viability ([4]; first compound 2.53 µM),relative viability ([4]; first compound 8 µM),relative viability ([5]; first compound 0.08 µM),relative viability ([5]; first compound 2.53 µM),relative viability ([5]; first compound 8 µM),relative viability ([5]; first compound 0.253 µM),relative viability ([3]; first compound 0.253 µM)
SK-LU-1,0.346,0.347,0.325,0.211,0.197,0.184,0.196,0.185,0.956,0.79,0.309,0.41,0.283,0.345,0.227,1.03,0.932,0.345,–,–
NCI-H1395,0.748,0.729,0.8,0.634,0.454,0.371,0.423,0.329,–,–,–,0.691,0.562,0.72,0.459,1.15,0.991,1.13,0.901,–
ChaGo-K-1,0.229,0.235,0.215,0.192,0.649,0.505,0.577,0.455,1.22,1.07,–,0.583,0.397,0.683,0.46,–,–,–,–,1.09
NCI-H2170,0.767,0.714,0.726,0.694,0.771,0.485,0.6,0.518,1.34,1.14,1.05,0.72,0.681,0.647,0.51,–,–,–,–,1.08
NCI-H1793,0.467,0.374,0.242,0.182,0.411,0.356,0.379,0.406,–,–,–,0.29,0.303,0.299,0.162,1.18,1.01,1.21,0.896,–
NCI-H522,0.626,0.596,0.588,0.523,0.904,–,0.859,0.772,–,–,–,0.649,0.631,0.672,0.552,–,–,–,–,–
HCC-44,0.884,0.688,0.858,0.773,–,–,–,–,0.811,0.725,0.565,0.552,0.431,0.741,0.395,0.68,–,0.658,0.629,0.735
SW 900,0.718,0.467,0.402,0.316,0.544,0.481,0.545,0.343,–,–,–,0.842,0.427,0.579,0.49,–,–,–,–,–
IA-LM,–,–,–,–,–,–,–,–,0.573,0.494,0.4,–,–,–,–,0.456,0.373,0.436,0.281,0.623
NCI-H1703,–,–,–,–,–,–,–,–,0.588,0.141,0.157,–,–,–,–,0.642,0.142,0.179,0.336,0.209
NCI-H1792,–,–,–,–,0.825,0.742,0.863,0.554,1.05,1,0.87,0.811,0.697,0.695,0.394,0.569,0.478,0.546,0.511,0.973
NCI-H1650,0.397,0.39,0.361,0.257,0.366,0.33,0.296,0.172,0.961,1.01,–,0.83,0.599,0.908,0.31,–,–,–,–,1.1
